Where a name gives a salt, the structure may show the parent alone. Blank lines part the entries; values can stand above or below the molecule they belong to. Activity calls are given as the source filed them.
Assays:
Kallikrein-7 = Kallikrein-7 (Homo sapiens, UniProt P49862); assay: Fluorescence Intensity-based biochemical primary high throughput dose response assay to identify activators of kallikrein-7 (K7) zymogen.
[1] = blockers of CRF-binding protein–CRF-R2 complex – cell-based, uHTS hits, 384-well, dose response (AID 651639); format: functional, Homo sapiens; details: read-out: IC50_Mean
[2] = target: T1, Corticotropin-releasing factor receptor 2/Corticotropin-releasing factor-binding protein (Homo sapiens, UniProt P24387+Q13324); assay: Dose Response confirmation of uHTS hits for small molecule antagonists of the CRF-binding protein and CRF-R2 receptor complex.; format: functional; details: read-out: IC50_Mean
T1 sequence (Q13324 whole entry): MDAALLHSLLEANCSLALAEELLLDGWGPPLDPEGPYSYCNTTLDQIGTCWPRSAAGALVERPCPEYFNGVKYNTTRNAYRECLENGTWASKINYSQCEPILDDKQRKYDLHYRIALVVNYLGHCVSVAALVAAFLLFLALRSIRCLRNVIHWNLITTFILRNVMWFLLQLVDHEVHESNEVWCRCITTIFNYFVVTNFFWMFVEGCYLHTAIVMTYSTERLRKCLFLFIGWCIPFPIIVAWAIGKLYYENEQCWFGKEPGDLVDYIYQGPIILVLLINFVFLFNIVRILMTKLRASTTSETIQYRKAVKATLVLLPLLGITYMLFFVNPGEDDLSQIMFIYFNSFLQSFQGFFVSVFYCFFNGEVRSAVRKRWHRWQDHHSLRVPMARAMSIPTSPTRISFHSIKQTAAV
T1 sequence (P24387 whole entry): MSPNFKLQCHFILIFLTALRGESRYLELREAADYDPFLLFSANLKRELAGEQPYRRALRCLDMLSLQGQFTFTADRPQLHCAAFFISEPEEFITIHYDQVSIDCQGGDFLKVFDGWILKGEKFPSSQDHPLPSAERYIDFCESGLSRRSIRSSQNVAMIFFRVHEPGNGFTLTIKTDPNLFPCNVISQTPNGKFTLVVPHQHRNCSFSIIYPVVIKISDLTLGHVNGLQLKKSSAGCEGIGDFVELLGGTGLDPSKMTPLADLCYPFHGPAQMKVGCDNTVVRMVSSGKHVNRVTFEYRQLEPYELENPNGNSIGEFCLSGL

[3] = target: T1, Corticotropin-releasing factor receptor 2/Corticotropin-releasing factor-binding protein; assay: activators of CRF receptor 2 with binding protein – uHTS hits, confirmation (AID 602473); format: functional; details: read-out: EC50_Mean
Protein Tat = target: T2, Protein Tat (Human immunodeficiency virus type 1 group M subtype B (isolate HXB2)(HIV-1), UniProt P04608); format: functional;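 note: tat binding to TAR RNA read out by fluorescence polarization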
T2 sequence (P04608 whole entry): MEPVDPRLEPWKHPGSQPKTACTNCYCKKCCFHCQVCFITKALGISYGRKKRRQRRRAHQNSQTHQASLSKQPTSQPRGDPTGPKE

[4] = target: T3, Hepatocyte nuclear factor 4-alpha (Homo sapiens, UniProt P41235); format: functional, cell-based;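 note: biochemical luminescence-based dose-response counterscreen measuring inhibition of HNF4 dimerization, run alongside a screen for blockers of ABHD5–perilipin-5 interaction; split luciferase complementation of HNF4 fusion proteins in cell lysate measuring dimerization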
T3 sequence (P41235 whole entry): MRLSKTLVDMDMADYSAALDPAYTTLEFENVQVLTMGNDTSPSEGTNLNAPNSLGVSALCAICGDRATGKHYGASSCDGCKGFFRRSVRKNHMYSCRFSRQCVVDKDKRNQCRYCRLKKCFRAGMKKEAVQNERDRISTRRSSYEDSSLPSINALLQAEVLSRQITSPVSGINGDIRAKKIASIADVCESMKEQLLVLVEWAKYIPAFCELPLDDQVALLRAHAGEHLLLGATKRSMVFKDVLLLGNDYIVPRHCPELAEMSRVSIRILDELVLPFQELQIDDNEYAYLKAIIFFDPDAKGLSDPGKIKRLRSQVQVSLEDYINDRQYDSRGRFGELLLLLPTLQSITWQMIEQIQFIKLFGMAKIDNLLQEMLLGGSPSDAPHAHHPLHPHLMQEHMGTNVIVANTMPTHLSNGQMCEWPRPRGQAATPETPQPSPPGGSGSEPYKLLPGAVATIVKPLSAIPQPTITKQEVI

[5] = target: T4, Polyadenylate-binding protein 1 (Homo sapiens, UniProt P11940); assay: MLLE binding blockers, Cy5 peptide tracer – biochemical, fluorescence polarization, Cy5-PAM2 peptide, secondary, miRNA deadenylation inhibitor project, dose response (AID 602260); format: functional; details: read-out: IC50_Mean
[6] = target: T4, Polyadenylate-binding protein 1; assay: MLLE domain peptide-binding blockers, IC50 – biochemical, fluorescence polarization, FITC-PAM2 peptide, dose response (AID 602259); format: functional; details: read-out: IC50_Mean
[7] = viability loss in THP-1 monocytes – THP-1 cells, cytotoxicity control for Vif-APOBEC3G degradation inhibitor project, dose response (AID 1117359); format: functional; details: THP-1
[8] = reduced cellular PGC1a acetyl-lysine signal – cell-based, cherry-picked samples, dose response (AID 720514); format: functional;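 note: potency may reflect raised or lowered acetylation signal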
[9] = viability loss in HEK293 cells – cell-based, plate reader, cherry-picked samples, cytotoxicity control, dose response (AID 743446); format: functional
[10] = viability of HCT116 lacking mutant beta-catenin – cell-based, human colon tumor, dose response (AID 1045); format: functional;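 note: HCT116 colon tumor cells with beta catenin knocked out; cells exposed to compound for 60 hours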
[11] = A549 cell cytotoxicity, dose response, cytotoxicity control, plate reader, cherry-pick, antagonist series (AID 743412); format: functional, cell-based
[12] = viability of PTEN-deleted HCT116 cells – cell-based, HCT116 PTEN knockout, dose response (AID 1047); format: functional;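 note: HCT116 colon tumor cells with PTEN knocked out; cells exposed to compound for 60 hours before readout; potency for loss of cell viability measured by luminescence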
[13] = blockers of bursicon-stimulated LGR2 cAMP reporter – cell-based, HEK293, CRE-luciferase reporter, cherry pick, set 2, dose response (AID 743343); format: functional;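 note: transfected cells were stimulated with diluted bursicon conditioned medium after compound addition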
[14] = target: Photoreceptor-specific nuclear receptor (Homo sapiens, UniProt Q9Y5X4); format: functional, cell-based;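 note: CHO-S cells with Gal4-NCOR and VP16-NR2E3 two-hybrid luciferase reporter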
[15] = blockade of melanocortin 4 receptor signaling – cell-based, plate reader, cherry pick, counter-screen for LGR2 antagonist project, dose response (AID 743444); format: functional;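 note: transfected HEK 293 cells stimulated with alpha-MSH peptide; potency of inhibitors of the alpha-MSH evoked signal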
Cytochrome P450 1A2 = target: T5, Cytochrome P450 1A2 (Homo sapiens, UniProt P05177);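 note: PubChem cytochrome P450 panel assay, CYP1A2 panel member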
T5 sequence (P05177 whole entry): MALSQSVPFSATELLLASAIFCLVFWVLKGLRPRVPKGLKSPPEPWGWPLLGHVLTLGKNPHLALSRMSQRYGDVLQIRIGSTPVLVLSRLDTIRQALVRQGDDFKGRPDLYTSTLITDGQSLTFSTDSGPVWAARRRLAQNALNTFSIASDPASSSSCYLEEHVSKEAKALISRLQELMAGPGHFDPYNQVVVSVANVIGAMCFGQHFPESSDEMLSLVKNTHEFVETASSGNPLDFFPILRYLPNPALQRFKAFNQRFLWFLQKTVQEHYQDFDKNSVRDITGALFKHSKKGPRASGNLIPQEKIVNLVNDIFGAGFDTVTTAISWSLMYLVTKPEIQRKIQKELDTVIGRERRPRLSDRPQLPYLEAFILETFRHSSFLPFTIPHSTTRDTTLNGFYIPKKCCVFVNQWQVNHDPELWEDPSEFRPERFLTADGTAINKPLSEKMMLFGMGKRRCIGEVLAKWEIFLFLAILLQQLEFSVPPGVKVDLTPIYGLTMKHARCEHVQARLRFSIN

Chain of Kallikrein-7 (P49862 whole entry): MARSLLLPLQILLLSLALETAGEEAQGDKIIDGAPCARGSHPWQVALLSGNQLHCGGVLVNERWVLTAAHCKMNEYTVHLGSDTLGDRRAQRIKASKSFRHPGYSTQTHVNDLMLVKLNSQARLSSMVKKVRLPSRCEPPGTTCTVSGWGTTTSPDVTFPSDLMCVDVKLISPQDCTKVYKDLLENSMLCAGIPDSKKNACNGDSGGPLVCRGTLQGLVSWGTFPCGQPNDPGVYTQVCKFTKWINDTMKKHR
T4 sequence (P11940 whole entry, the tested form may be a part): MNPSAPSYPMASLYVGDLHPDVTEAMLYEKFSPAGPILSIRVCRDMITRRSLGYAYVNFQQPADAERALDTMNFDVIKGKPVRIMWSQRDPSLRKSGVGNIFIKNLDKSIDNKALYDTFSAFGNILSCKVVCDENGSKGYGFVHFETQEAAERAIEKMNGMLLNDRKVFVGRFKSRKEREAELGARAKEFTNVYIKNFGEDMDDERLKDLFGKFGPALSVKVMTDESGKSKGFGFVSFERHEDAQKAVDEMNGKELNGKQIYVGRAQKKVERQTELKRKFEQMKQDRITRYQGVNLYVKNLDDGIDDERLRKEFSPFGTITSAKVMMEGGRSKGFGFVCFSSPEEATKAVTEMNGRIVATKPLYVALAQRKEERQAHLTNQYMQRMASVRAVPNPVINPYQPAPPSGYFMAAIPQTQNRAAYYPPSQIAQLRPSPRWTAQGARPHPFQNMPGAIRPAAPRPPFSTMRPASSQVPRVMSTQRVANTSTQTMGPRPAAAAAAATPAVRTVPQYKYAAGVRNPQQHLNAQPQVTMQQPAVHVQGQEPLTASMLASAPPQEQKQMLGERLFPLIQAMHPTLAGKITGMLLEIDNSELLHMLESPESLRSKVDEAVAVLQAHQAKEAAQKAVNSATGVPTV
Chain of Photoreceptor-specific nuclear receptor (Q9Y5X4 whole entry, the tested form may be a part): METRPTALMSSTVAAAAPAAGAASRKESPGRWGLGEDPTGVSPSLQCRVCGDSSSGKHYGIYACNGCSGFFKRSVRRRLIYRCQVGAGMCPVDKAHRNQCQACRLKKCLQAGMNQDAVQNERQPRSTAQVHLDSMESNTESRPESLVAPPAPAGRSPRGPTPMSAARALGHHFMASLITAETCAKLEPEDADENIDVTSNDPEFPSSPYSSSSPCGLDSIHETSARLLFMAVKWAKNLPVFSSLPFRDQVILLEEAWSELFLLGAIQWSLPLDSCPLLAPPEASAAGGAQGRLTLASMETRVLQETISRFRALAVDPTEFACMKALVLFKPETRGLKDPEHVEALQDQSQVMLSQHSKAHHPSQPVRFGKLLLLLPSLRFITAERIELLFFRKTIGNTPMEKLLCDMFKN

EC50 (Kallikrein-7): > 69.5 µM (inactive)
Compound: Cc1cc(N2CCCC2)nc2ccc(NC(=S)NCCCOC(C)C)cc12

EC50 (Kallikrein-7): > 69.5 µM (inactive)
Compound: Cc1cccc(C)c1NC(=O)C(c1ccccc1)N1CC(=O)Nc2ccccc21 (configuration not stated)

IC50 [1]: 14.4 µM (active) | IC50 [2]: 10.3 µM (active) | EC50 [3]: > 53 µM (inactive)
Compound: Cc1ccc(S(=O)(=O)N(CC(=O)Nc2ccccc2C(=O)O)c2ccc(Cl)cc2)cc1

IC50 (Protein Tat): > 100 µM (active)
Compound: O=C(c1cc2n(n1)C(C(F)(F)F)CC(c1ccco1)N2)N1CCc2ccccc2C1 (configuration not stated)

IC50 (Protein Tat): > 100 µM (active)
Compound: CC(C)CCN1CCN(Cc2cccn2-c2cccnc2)CC1CCO (configuration not stated)

IC50 [4]: 0.814 µM (active) | IC50 [5]: > 66 µM (inactive) | IC50 [6]: > 66 µM (inactive)
Compound: CCOC1=CC2=C(C(=O)C(Cl)=CC2=O)[C@@H]2CN(S(=O)(=O)c3ccc(C)cc3)[C@@H](c3ccccc3)[C@H]12

Compound: COc1cc(C)c(C2NC(=O)c3ccccc3N2)cc1C (configuration not stated)
CC50 [7]: 2.86 µM (active)

IC50 [4]: 3.64 µM (active)
Compound: Cc1cccc(C)c1NC(=O)C(c1ccnc2ccccc12)n1c(=O)c(-c2ccco2)nc2ccccc21 (configuration not stated)

Compound: O=C1C=CCCN1C(=O)/C=C/c1ccccc1Cl
AC50 [8]: 0.617 µM (active)

Compound: Cc1ccc(C#N)c(SCc2nnc(-c3ccc(Cl)cc3)o2)n1
AC50 [9]: > 52 µM (inactive) | EC50 [10]: 15.7 µM (active) | AC50 [11]: 30.9 µM (active) | EC50 [12]: 8.1 µM (active) | AC50 [13]: 0.181 µM (active) | IC50 [14]: 1.47 µM (active) | AC50 [15]: 0.209 µM (active)

AC50 (Cytochrome P450 1A2): 12.6 µM (inconclusive) | IC50 [4]: 10.9 µM (inactive)
Compound: CCN(CC)CCOCCOC(=O)C1(c2ccccc2)CCCC1 [CARBETAPENTANE CITRATE]
